According to PubChem BioAssay AID330 (DTP/NCI, 2004):
“And” between values parts separate entries of the source, which are not always exact repeats. Identical values can stand only once. Toxic doses and inconclusive results are not listed. Rule for the calls: active = survival T/C of 150% or more; inactive = T/C below 125% in these data.

System: P388 leukemia ip, CD2F1 mice, survival T/C
Experiment: NCI In Vivo Anticancer Drug Screen. Data for tumor model P388 Leukemia (intraperitoneal) in CD2F1 (CDF1) mice
Details: endpoint: median survival time, higher = longer survival
Method in brief: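 Mice carrying the transplanted tumor received test compound or vehicle. Survival was recorded in each group, and the value is the treated-group measurement divided by that of the vehicle-treated control group.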

[1] = dose: 60.0 mg/kg/injection, schedule: Q01DX005 (ip), vehicle: saline with Tween-80
[2] = dose: 120.0 mg/kg/injection, schedule: Q01DX005 (ip), vehicle: saline with Tween-80
[3] = dose: 240.0 mg/kg/injection, schedule: Q01DX005 (ip), vehicle: saline with Tween-80
[4] = dose: 100.0 mg/kg/injection, schedule: Q01DX009 (ip), vehicle: saline
[5] = dose: 50.0 mg/kg/injection, schedule: Q01DX009 (ip), vehicle: saline with Tween-80
[6] = dose: 100.0 mg/kg/injection, schedule: Q01DX009 (ip), vehicle: saline with Tween-80
[7] = dose: 200.0 mg/kg/injection, schedule: Q01DX009 (ip), vehicle: saline with Tween-80
[8] = dose: 60.0 mg/kg/injection, schedule: Q01DX005 (ip), vehicle: Klucel (hydroxypropylcellulose) (HPC)
[9] = dose: 120.0 mg/kg/injection, schedule: Q01DX005 (ip), vehicle: Klucel (hydroxypropylcellulose) (HPC)
[10] = dose: 240.0 mg/kg/injection, schedule: Q01DX005 (ip), vehicle: Klucel (hydroxypropylcellulose) (HPC)

Measured: T/C

CC1COS(=O)O1 (stereo not drawn)
inactive: dose: 20.0 mg/kg/injection, schedule: Q01DX009 (ip), vehicle: saline sonified 109 % of control | dose: 40.0 mg/kg/injection, schedule: Q01DX009 (ip), vehicle: saline sonified 109 % of control

COC(=O)C1=C(O)c2cc(C)c(C)c(C#N)c2NC(=O)C1
inactive: [1] 95 % of control | [2] 97 % of control | [3] 93 % of control

CC(CCCCCCCC1CC(OS(=O)(=O)O)CCCCCCCCCCCC(OS(=O)(=O)O)CC(OS(=O)(=O)O)CCCCCCCCCCCCCC(=O)O1)OS(=O)(=O)O (stereo not drawn) (tested in a mixture with another compound)
inactive: dose: 25.0 micrograms/kg/injection, schedule: Q01DX005 (ip), vehicle: Klucel (hydroxypropylcellulose) (HPC) 98 % of control | dose: 50.0 micrograms/kg/injection, schedule: Q01DX005 (ip), vehicle: Klucel (hydroxypropylcellulose) (HPC) 103 % of control | dose: 100.0 micrograms/kg/injection, schedule: Q01DX005 (ip), vehicle: Klucel (hydroxypropylcellulose) (HPC) 97 % of control | dose: 200.0 micrograms/kg/injection, schedule: Q01DX005 (ip), vehicle: Klucel (hydroxypropylcellulose) (HPC) 97 % of control

O=C1CN(C2OC(CO)C(O)C2O)C(=O)NC1=O (stereo not drawn)
inactive: dose: 25.0 mg/kg/injection, schedule: Q01DX005 (ip), vehicle: saline 112 % of control | dose: 50.0 mg/kg/injection, schedule: Q01DX005 (ip), vehicle: saline 113 % of control | dose: 50.0 mg/kg/injection, schedule: Q01DX005 (ip), vehicle: suspension in saline 100 % of control | dose: 100.0 mg/kg/injection, schedule: Q01DX005 (ip), vehicle: saline 99 % of control and 116 % of control | dose: 100.0 mg/kg/injection, schedule: Q01DX005 (ip), vehicle: suspension in saline 107 % of control | dose: 200.0 mg/kg/injection, schedule: Q01DX005 (ip), vehicle: saline 116 % of control | dose: 200.0 mg/kg/injection, schedule: Q01DX005 (ip), vehicle: suspension in saline 109 % of control | dose: 400.0 mg/kg/injection, schedule: Q01DX005 (ip), vehicle: suspension in saline 116 % of control

CC[N](CC)[Ge]([CH2]C)[CH2]C.C[CH2][Ge]([CH2]C)[CH2]C
inactive: dose: 6.25 mg/kg/injection, schedule: Q01DX009 (ip), vehicle: saline 98 % of control and 109 % of control | dose: 12.5 mg/kg/injection, schedule: Q01DX009 (ip), vehicle: saline 98 % of control and 109 % of control | dose: 25.0 mg/kg/injection, schedule: Q01DX009 (ip), vehicle: saline 109 % of control and 114 % of control | dose: 50.0 mg/kg/injection, schedule: Q01DX009 (ip), vehicle: saline 121 % of control | [4] 118 % of control

CC(=O)Oc1ccc(C(O)CN(C)OC(C)=O)cc1OC(C)=O (stereo not drawn)
inactive: dose: 12.5 mg/kg/injection, schedule: Q01DX005 (ip), vehicle: Klucel + Tween-80 100 % of control | dose: 25.0 mg/kg/injection, schedule: Q01DX005 (ip), vehicle: Klucel + Tween-80 101 % of control | dose: 50.0 mg/kg/injection, schedule: Q01DX005 (ip), vehicle: Klucel + Tween-80 101 % of control and 92 % of control

CN=C(NC)c1ccc(NC(=O)c2ccc(C(=O)Nc3ccc(C(=NC)NC)cc3)c([N+](=O)[O-])c2)cc1
inactive: dose: 1.56 mg/kg/injection, schedule: Q01DX005 (ip), vehicle: Klucel (hydroxypropylcellulose) (HPC) 106 % of control | dose: 3.12 mg/kg/injection, schedule: Q01DX005 (ip), vehicle: Klucel (hydroxypropylcellulose) (HPC) 118 % of control

Cc1ccc(C)c2c1C(=O)c1ccccc1C2(O)C#Cc1ccccc1 (stereo not drawn)
inactive: dose: 50.0 mg/kg/injection, schedule: Q01DX005 (ip), vehicle: Klucel (hydroxypropylcellulose) (HPC) 101 % of control | dose: 100.0 mg/kg/injection, schedule: Q01DX005 (ip), vehicle: Klucel (hydroxypropylcellulose) (HPC) 94 % of control | dose: 200.0 mg/kg/injection, schedule: Q01DX005 (ip), vehicle: Klucel (hydroxypropylcellulose) (HPC) 94 % of control

CCOc1ccc(N=C([Se])CC)cc1
inactive: dose: 6.25 mg/kg/injection, schedule: Q01DX009 (ip), vehicle: Klucel (hydroxypropylcellulose) (HPC) 109 % of control | dose: 12.5 mg/kg/injection, schedule: Q01DX009 (ip), vehicle: Klucel (hydroxypropylcellulose) (HPC) 102 % of control | dose: 25.0 mg/kg/injection, schedule: Q01DX009 (ip), vehicle: Klucel (hydroxypropylcellulose) (HPC) 92 % of control

NN1C(=O)CCC1=O
inactive: [5] 94 % of control | [6] 97 % of control | [7] 92 % of control

CC(C)N=C(NC(C)C)c1ccc(NC(=O)Nc2ccc(NC(=O)Nc3ccc(C(=NC(C)C)NC(C)C)cc3)cc2)cc1
inactive: dose: 1.56 mg/kg/injection, schedule: Q01DX005 (ip), vehicle: saline with Tween-80 111 % of control | dose: 3.13 mg/kg/injection, schedule: Q01DX005 (ip), vehicle: saline with Tween-80 108 % of control and 113 % of control | dose: 6.25 mg/kg/injection, schedule: Q01DX005 (ip), vehicle: saline with Tween-80 104 % of control and 124 % of control

Nc1ccc2ccc(N)nc2c1
inactive: dose: 50.0 mg/kg/injection, schedule: Q01DX009 (ip), vehicle: acid diluted with saline 105 % of control

CC(=O)N1C(=O)C2(Nc3cc4ccccc4cc3N2)c2ccccc21
inactive: [1] 94 % of control | [2] 93 % of control | [3] 92 % of control

O=c1[nH][nH]c(=O)n2c1cc1oc(-c3ccccc3)cc12
inactive: [1] 86 % of control | [2] 90 % of control | [3] 86 % of control

CC(=O)Nc1ccc(C(=O)C(C)=O)cc1
inactive: [5] 100 % of control | [6] 104 % of control | [7] 97 % of control

O=C(Cc1nc2ccccc2s1)Nc1ccc2ccccc2c1
inactive: [1] 107 % of control | [2] 106 % of control

CC1(c2ccccc2)OC1C(=O)N(c1ccccc1)c1ccccc1 (stereo not drawn)
inactive: dose: 100.0 mg/kg/injection, schedule: Q04DX003 (ip), vehicle: Klucel (hydroxypropylcellulose) (HPC) 96 % of control | dose: 200.0 mg/kg/injection, schedule: Q04DX003 (ip), vehicle: Klucel (hydroxypropylcellulose) (HPC) 94 % of control | dose: 400.0 mg/kg/injection, schedule: Q04DX003 (ip), vehicle: Klucel (hydroxypropylcellulose) (HPC) 88 % of control

CC(Br)C(C)(C)OO (stereo not drawn)
inactive: dose: 100.0 mg/kg/injection, schedule: Q01DX001 (ip), vehicle: Klucel (hydroxypropylcellulose) (HPC) 101 % of control | dose: 200.0 mg/kg/injection, schedule: Q01DX001 (ip), vehicle: Klucel (hydroxypropylcellulose) (HPC) 95 % of control | dose: 400.0 mg/kg/injection, schedule: Q01DX001 (ip), vehicle: Klucel (hydroxypropylcellulose) (HPC) 100 % of control

COC(=O)C(C)(OC)OC
inactive: dose: 100.0 mg/kg/injection, schedule: Q04DX003 (ip), vehicle: saline 100 % of control | dose: 200.0 mg/kg/injection, schedule: Q04DX003 (ip), vehicle: saline 109 % of control | dose: 400.0 mg/kg/injection, schedule: Q04DX003 (ip), vehicle: saline 100 % of control

Nc1cncc2nnnn12
inactive: [8] 104 % of control | [9] 104 % of control | [10] 113 % of control

CC1(C)C2CCC1(C)C(O)C2N (stereo not drawn)
inactive: dose: 30.0 mg/kg/injection, schedule: Q01DX005 (ip), vehicle: saline with Tween-80 93 % of control | [1] 94 % of control and 95 % of control

COc1cc(Br)c(C(=O)N2CCCc3ccccc32)cc1OC
inactive: dose: 12.5 mg/kg/injection, schedule: Q01DX009 (ip), vehicle: other 101 % of control | dose: 25.0 mg/kg/injection, schedule: Q01DX009 (ip), vehicle: other 94 % of control | dose: 50.0 mg/kg/injection, schedule: Q01DX009 (ip), vehicle: other 91 % of control | dose: 100.0 mg/kg/injection, schedule: Q01DX009 (ip), vehicle: other 91 % of control | dose: 200.0 mg/kg/injection, schedule: Q01DX009 (ip), vehicle: other 94 % of control

C=C1C(=O)O[C@@H]2[C@@H]3O[C@@](C)(CC[C@H](OC(C)=O)[C@@H]3CO)C[C@@H](OC(=O)/C(=C\C)COC(C)=O)[C@@H]12
inactive: dose: 25.0 mg/kg/injection, schedule: Q01DX005 (ip), vehicle: Klucel (hydroxypropylcellulose) (HPC) 101 % of control

CNC(=O)OCc1c(COC(=O)NC)c(-c2ccc(Cl)c(Cl)c2)n2c1SCC2
inactive: dose: 50.0 mg/kg/injection, schedule: Q01DX005 (ip), vehicle: saline with Tween-80 106 % of control and 123 % of control

CC(C)(C)n1nc(C2CC2)c(Br)c1NC(=O)c1ccccc1F
inactive: dose: 30.0 mg/kg/injection, schedule: Q01DX005 (ip), vehicle: Klucel (hydroxypropylcellulose) (HPC) 100 % of control | [8] 98 % of control | [9] 104 % of control | [10] 100 % of control

O=C(O)Cn1nnc2ccccc21
inactive: [4] 101 % of control | dose: 200.0 mg/kg/injection, schedule: Q01DX009 (ip), vehicle: saline 96 % of control
